Columns and labels:
[1] = Clearance in Homo sapiens (human) at 150 mg; type: ADME, organism-based; conditions: in vivo
[2] = Volume of distribution in Homo sapiens (human) at 150 mg; type: ADME, organism-based; conditions: in vivo
[3] = Mean residence time in Homo sapiens (human) at 150 mg; type: ADME, organism-based; conditions: in vivo
[4] = Elimination half life in Homo sapiens (human) at 150 mg; type: ADME, organism-based; conditions: in vivo, read-out: beta t1/2 (converted)
[5] = AUC (0 to infinity) in Homo sapiens (human) at 150 mg; type: ADME, organism-based; parameters: dose 150 mg, time infinity; conditions: plasma
Homo sapiens = organism: Homo sapiens; test: Dose normalized AUC in Homo sapiens (human) at 150 mg; type: ADME, organism-based; conditions: in vivo
[6] = Tmax in Homo sapiens (human) at 150 mg; type: ADME, organism-based; conditions: in vivo
[7] = Cmax in Homo sapiens (human) at 150 mg; type: ADME, organism-based; parameters: dose 150 mg; conditions: in vivo
[8] = Volume of distribution in Macaca mulatta (Rhesus monkey) at 4 mg/kg, iv; type: ADME, organism-based; parameters: dose 4 mg/kg, route intravenous; conditions: in vivo
Rhesus monkey [9] = test: Clearance in Macaca mulatta (Rhesus monkey) at 4 mg/kg, iv; type: ADME, organism-based; parameters: dose 4 mg/kg, route intravenous; conditions: in vivo
[10] = Mean residence time in Macaca mulatta (Rhesus monkey) at 4 mg/kg, iv; type: ADME, organism-based; parameters: dose 4 mg/kg, route intravenous; conditions: in vivo
Rhesus monkey [11] = test: Dose normalized AUC in Macaca mulatta (Rhesus monkey) at 4 mg/kg, iv; type: ADME, organism-based; parameters: dose 4 mg/kg, route intravenous; conditions: in vivo
[12] = Elimination half life in Macaca mulatta (Rhesus monkey) at 4 mg/kg, iv; type: ADME, organism-based; parameters: dose 4 mg/kg, route intravenous; conditions: in vivo, read-out: beta t1/2 (converted)
Rhesus monkey [13] = test: AUC (0 to infinity) in Macaca mulatta (Rhesus monkey) at 4 mg/kg, iv; type: ADME, organism-based, Plasma; parameters: time infinity, dose 4 mg/kg, route intravenous; conditions: in vivo
Rhesus monkey [14] = test: Volume of distribution in Macaca mulatta (Rhesus monkey) at 7.5 mg/kg, administered intramuscularly; type: ADME, organism-based; parameters: dose 7.5 mg/kg, route intramuscular; conditions: in vivo, im
Rhesus monkey [15] = test: Clearance in Macaca mulatta (Rhesus monkey) at 7.5 mg/kg, administered intramuscularly; type: ADME, organism-based; parameters: dose 7.5 mg/kg, route intramuscular; conditions: in vivo, im
[16] = Mean residence time in Macaca mulatta (Rhesus monkey) at 7.5 mg/kg, administered intramuscularly; type: ADME, organism-based; parameters: dose 7.5 mg/kg, route intramuscular; conditions: in vivo, im
[17] = Elimination half life in Macaca mulatta (Rhesus monkey) at 7.5 mg/kg, administered intramuscularly; type: ADME, organism-based; parameters: dose 7.5 mg/kg, route intramuscular; conditions: in vivo, im, read-out: beta t1/2 (converted)
Rhesus monkey [18] = test: Dose normalized AUC in Macaca mulatta (Rhesus monkey) at 7.5 mg/kg, administered intramuscularly; type: ADME, organism-based; parameters: dose 7.5 mg/kg, route intramuscular; conditions: in vivo, im
[19] = Tmax in Macaca mulatta (Rhesus monkey) at 7.5 mg/kg, administered intramuscularly; type: ADME, organism-based; parameters: dose 7.5 mg/kg, route intramuscular; conditions: in vivo, im
Rhesus monkey [20] = test: AUC (0 to infinity) in Macaca mulatta (Rhesus monkey) at 7.5 mg/kg, administered intramuscularly; type: ADME, organism-based, Plasma; parameters: time infinity, dose 7.5 mg/kg, route intramuscular; conditions: in vivo, im
[21] = Cmax in Macaca mulatta (Rhesus monkey) at 7.5 mg/kg, administered intramuscularly; type: ADME, organism-based; parameters: dose 7.5 mg/kg, route intramuscular; conditions: in vivo, im
Rhesus monkey [22] = test: Volume of distribution in Macaca mulatta (Rhesus monkey) at 50 mg/kg, po; type: ADME, organism-based; parameters: dose 50 mg/kg, route oral; conditions: in vivo
[23] = Mean residence time in Macaca mulatta (Rhesus monkey) at 50 mg/kg, po; type: ADME, organism-based; parameters: dose 50 mg/kg, route oral; conditions: in vivo
[24] = Elimination half life in Macaca mulatta (Rhesus monkey) at 50 mg/kg, po; type: ADME, organism-based; parameters: dose 50 mg/kg, route oral; conditions: in vivo, read-out: beta t1/2 (converted)
[25] = Elimination half life in Rattus norvegicus Sprague-Dawley (rat) at 30 mg/kg, administered intramuscularly; type: ADME, organism-based; parameters: dose 30 mg/kg, route intramuscular; conditions: in vivo, im, read-out: beta t1/2 (converted)
Rattus norvegicus [26] = test: Dose normalized AUC in Rattus norvegicus Sprague-Dawley (rat) at 30 mg/kg, administered intramuscularly; type: ADME, organism-based; parameters: dose 30 mg/kg, route intramuscular; conditions: in vivo, im
[27] = Tmax in Rattus norvegicus Sprague-Dawley (rat) at 30 mg/kg, administered intramuscularly; type: ADME, organism-based; parameters: dose 30 mg/kg, route intramuscular; conditions: in vivo, im
Rattus norvegicus [28] = test: AUC (0 to infinity) in Rattus norvegicus Sprague-Dawley (rat) at 30 mg/kg, administered intramuscularly; type: ADME, organism-based, Plasma; parameters: time infinity, dose 30 mg/kg, route intramuscular; conditions: in vivo, im
[29] = Cmax in Rattus norvegicus Sprague-Dawley (rat) at 30 mg/kg, administered intramuscularly; type: ADME, organism-based; parameters: dose 30 mg/kg, route intramuscular; conditions: in vivo, im
Rattus norvegicus [30] = test: Volume of distribution in Rattus norvegicus Sprague-Dawley (rat) at 17.5 mg/kg, administered intramuscularly; type: ADME, organism-based; parameters: dose 17.5 mg/kg, route intramuscular; conditions: in vivo, im
[31] = Mean residence time in Rattus norvegicus Sprague-Dawley (rat) at 17.5 mg/kg, administered intramuscularly; type: ADME, organism-based; parameters: dose 17.5 mg/kg, route intramuscular; conditions: in vivo, im
Rattus norvegicus [32] = test: Clearance in Rattus norvegicus Sprague-Dawley (rat) at 17.5 mg/kg, administered intramuscularly; type: ADME, organism-based; parameters: dose 17.5 mg/kg, route intramuscular; conditions: in vivo, im
[33] = Elimination half life in Rattus norvegicus Sprague-Dawley (rat) at 17.5 mg/kg, administered intramuscularly; type: ADME, organism-based; parameters: dose 17.5 mg/kg, route intramuscular; conditions: in vivo, im, read-out: beta t1/2 (converted)
Rattus norvegicus [34] = test: Dose normalized AUC in Rattus norvegicus Sprague-Dawley (rat) at 17.5 mg/kg, administered intramuscularly; type: ADME, organism-based; parameters: dose 17.5 mg/kg, route intramuscular; conditions: in vivo, im
[35] = Tmax in Rattus norvegicus Sprague-Dawley (rat) at 17.5 mg/kg, administered intramuscularly; type: ADME, organism-based; parameters: dose 17.5 mg/kg, route intramuscular; conditions: in vivo, im
Rattus norvegicus [36] = test: AUC (0 to infinity) in Rattus norvegicus Sprague-Dawley (rat) at 17.5 mg/kg, administered intramuscularly; type: ADME, organism-based, Plasma; parameters: dose 17.5 mg/kg, route intramuscular, time infinity; conditions: in vivo, im
[37] = Cmax in Rattus norvegicus Sprague-Dawley (rat) at 17.5 mg/kg, administered intramuscularly; type: ADME, organism-based; parameters: dose 17.5 mg/kg, route intramuscular; conditions: in vivo, im
Rattus norvegicus [38] = test: Volume of distribution in Rattus norvegicus Sprague-Dawley (rat) at 9 mg/kg, administered intramuscularly; type: ADME, organism-based; parameters: dose 9 mg/kg, route intramuscular; conditions: in vivo, im
[39] = Mean residence time in Rattus norvegicus Sprague-Dawley (rat) at 9 mg/kg, administered intramuscularly; type: ADME, organism-based; parameters: dose 9 mg/kg, route intramuscular; conditions: in vivo, im
Rattus norvegicus [40] = test: Clearance in Rattus norvegicus Sprague-Dawley (rat) at 9 mg/kg, administered intramuscularly; type: ADME, organism-based; parameters: dose 9 mg/kg, route intramuscular; conditions: in vivo, im

Compound: CCO[C@@H]1O[C@@H]2O[C@]3(C)CC[C@H]4[C@H](C)CC[C@@H]([C@H]1C)[C@@]24OO3 [ALPHA-ARTEETHER]
- clearance [1]: 10 mL/min/kg
- Vd [2]: 12 L/kg
- MRT [3]: 19.6 h
- half-life [4]: 13.2 h
- AUC(0-inf) [5]: 1300 ng·h/mL
- AUC/dose (Homo sapiens): 1721.9 ng·h/mL
- Tmax [6]: 4.8 min
- Cmax [7]: 60.7 ng/mL
- Vd [8]: 4.1 L/kg
- CL (Rhesus monkey [9]): 26.7 mL/min/kg
- MRT [10]: 2 h
- AUC/dose (Rhesus monkey [11]): 628.7 ng·h/mL
- half-life [12]: 1.8 h
- AUC (Rhesus monkey [13]): 754.4 ng·h/mL
- Vd (Rhesus monkey [14]): 36.8 L/kg
- CL (Rhesus monkey [15]): 61.7 mL/min/kg
- MRT [16]: 9.2 h
- half-life [17]: 6.7 h
- AUC/dose (Rhesus monkey [18]): 285.3 ng·h/mL
- Tmax [19]: 1 h
- AUC (Rhesus monkey [20]): 641.8 ng·h/mL
- Cmax [21]: 96.7 ng/mL
- Vd (Rhesus monkey [22]): 7148.8 L/kg
- MRT [23]: 3.4 h
- half-life [24]: 2.7 h
- half-life [25]: 11.9 h
- AUC/dose (Rattus norvegicus [26]): 66.8 ng·h/mL
- Tmax [27]: 0.167 h
- AUC (Rattus norvegicus [28]): 601.1 ng·h/mL
- Cmax [29]: 93.3 ng/mL
- Vd (Rattus norvegicus [30]): 129.3 L/kg
- MRT [31]: 23.5 h
- CL (Rattus norvegicus [32]): 68.3 mL/min/kg
- half-life [33]: 21.7 h
- AUC/dose (Rattus norvegicus [34]): 237.5 ng·h/mL
- Tmax [35]: 0.5 h
- AUC (Rattus norvegicus [36]): 1247.1 ng·h/mL
- Cmax [37]: 184 ng/mL
- Vd (Rattus norvegicus [38]): 76.8 L/kg
- MRT [39]: 47.8 h
- CL (Rattus norvegicus [40]): 40 mL/min/kg

From ChEMBL document CHEMBL3045862, “PRE-CLINICAL AND CLINICAL PHARMACOKINETICS OF THE DIASTEREOMERS OF ARTEETHER, A POTENT ANTIMALARIAL” (Med Chem Res, 2004)
